Experimental data reported in PubChem BioAssay AID1919000 (Molecular Pharmacology Branch, DTP, NCI, 2023).

Test system: 653999-131-R-J2-PDC complex spheroids, growth % test/control
Assay: Anticancer human tumor 653999-131-R-J2-PDC patient-derived lung adenocarcinoma cell line growth inhibition [AhR]
Settings: for IC50: curve of first compound; for viability, T/C: stronger effect = lower value; active = viability on the fitted dose curve at most 10% of control; inactive = the rest
In short: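 Agents were dosed in half-log steps down from roughly clinical Cmax, or from 10 microM where Cmax was unknown, alone and with AhR antagonists. Read-out: percent test/control growth of tumor spheroids containing HUVEC and MSC stromal cells.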

[1] = second compound 0.1 µM, first compound 0.0316 µM
[2] = second compound 0.1 µM, first compound 0.1 µM
[3] = second compound 0.1 µM, first compound 0.316 µM
[4] = second compound 0.1 µM, first compound 1 µM
[5] = second compound 0.1 µM, first compound 3.16 µM
[6] = second compound 0.1 µM, first compound 10 µM
[7] = second compound 0.316 µM, first compound 0.0316 µM
[8] = second compound 0.316 µM, first compound 0.1 µM
[9] = second compound 0.316 µM, first compound 0.316 µM
[10] = second compound 0.316 µM, first compound 1 µM
[11] = second compound 0.316 µM, first compound 3.16 µM
[12] = second compound 0.316 µM, first compound 10 µM
[13] = second compound 1 µM, first compound 0.0316 µM
[14] = second compound 1 µM, first compound 0.1 µM
[15] = second compound 1 µM, first compound 0.316 µM
[16] = second compound 1 µM, first compound 1 µM
[17] = second compound 1 µM, first compound 3.16 µM
[18] = second compound 1 µM, first compound 10 µM
[19] = second compound 3.16 µM, first compound 0.0316 µM
[20] = second compound 3.16 µM, first compound 0.1 µM
[21] = second compound 3.16 µM, first compound 0.316 µM
[22] = second compound 3.16 µM, first compound 1 µM
[23] = second compound 3.16 µM, first compound 3.16 µM
[24] = second compound 3.16 µM, first compound 10 µM
[25] = second compound 10 µM, first compound 0.0316 µM
[26] = second compound 10 µM, first compound 0.1 µM
[27] = second compound 10 µM, first compound 0.316 µM
[28] = second compound 10 µM, first compound 1 µM
[29] = second compound 10 µM, first compound 3.16 µM
[30] = second compound 10 µM, first compound 10 µM
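Note: spheroids exposed to agents for seven days.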
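Throughout, for viability, T/C: 100% = DMSO vehicle control viability.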

CC1COCCN1c1cc(C2(S(C)(=N)=O)CC2)nc(-c2ccnc3[nH]ccc23)n1 (stereo not given) + Cc1cncc(-c2nc(NCCc3c[nH]c4ccccc34)c3ncn(C(C)C)c3n2)c1
8.43 µM: IC50 (second compound 0.1 µM)
> 10 µM: IC50 (second compound 1 µM)
2.7 µM: IC50 (second compound 10 µM)
9.8 µM: IC50 (second compound 3.16 µM)
inactive: viability, T/C [1] 105% | viability, T/C [2] 102% | viability, T/C [3] 94.7% | viability, T/C [4] 104% | viability, T/C [5] 86.1% | viability, T/C [6] 43.7% | viability, T/C [7] 103% | viability, T/C [8] 111% | viability, T/C [9] 108% | viability, T/C [10] 94.8% | viability, T/C [11] 82% | viability, T/C [12] 49.5% | viability, T/C [13] 107% | viability, T/C [14] 110% | viability, T/C [15] 124% | viability, T/C [16] 104% | viability, T/C [17] 87.1% | viability, T/C [18] 55.1% | viability, T/C [19] 101% | viability, T/C [20] 111% | viability, T/C [21] 112% | viability, T/C [22] 99% | viability, T/C [23] 85% | viability, T/C [24] 49.2% | viability, T/C [25] 71.4% | viability, T/C [26] 70.6% | viability, T/C [27] 64.5% | viability, T/C [28] 56.1% | viability, T/C [29] 49.6% | viability, T/C [30] 44.2%
9.85 µM: IC50 (second compound 0.316 µM)

CC1(C)CCC(CN2CCN(c3ccc(C(=O)NS(=O)(=O)c4ccc(NCC5CCOCC5)c([N+](=O)[O-])c4)c(Oc4cnc5[nH]ccc5c4)c3)CC2)=C(c2ccc(Cl)cc2)C1 + Cc1cncc(-c2nc(NCCc3c[nH]c4ccccc34)c3ncn(C(C)C)c3n2)c1
> 10 µM: IC50 (second compound 0.1 µM) | IC50 (second compound 0.316 µM) | IC50 (second compound 1 µM) | IC50 (second compound 3.16 µM) | IC50 (second compound 10 µM)
inactive: viability, T/C [1] 92.8% | viability, T/C [2] 93.8% | viability, T/C [3] 89% | viability, T/C [4] 101% | viability, T/C [5] 94.2% | viability, T/C [6] 85.8% | viability, T/C [7] 97.8% | viability, T/C [8] 90.7% | viability, T/C [9] 94.8% | viability, T/C [10] 97.8% | viability, T/C [11] 116% | viability, T/C [12] 83% | viability, T/C [13] 103% | viability, T/C [14] 108% | viability, T/C [15] 109% | viability, T/C [16] 102% | viability, T/C [17] 116% | viability, T/C [18] 105% | viability, T/C [19] 105% | viability, T/C [20] 105% | viability, T/C [21] 109% | viability, T/C [22] 115% | viability, T/C [23] 104% | viability, T/C [24] 91.8% | viability, T/C [25] 59.4% | viability, T/C [26] 61.9% | viability, T/C [27] 59.5% | viability, T/C [28] 71.3% | viability, T/C [29] 74.1% | viability, T/C [30] 62.5%

COc1ccc([C@@H](O)c2cc(-c3ncnc4cc(N5CCOCC5)ccc34)c(F)cc2Cl)nn1 + Cc1ccccc1N=Nc1ccc(NC(=O)c2ccnn2C)c(C)c1
9.88 µM: IC50 (second compound 0.1 µM)
> 10 µM: IC50 (second compound 0.316 µM) | IC50 (second compound 1 µM) | IC50 (second compound 3.16 µM)
7.77 µM: IC50 (second compound 10 µM)
inactive: viability, T/C [1] 101% | viability, T/C [2] 105% | viability, T/C [3] 88.7% | viability, T/C [4] 74.2% | viability, T/C [5] 66% | viability, T/C [6] 48.6% | viability, T/C [7] 114% | viability, T/C [8] 114% | viability, T/C [9] 88.7% | viability, T/C [10] 83.6% | viability, T/C [11] 65% | viability, T/C [12] 51.8% | viability, T/C [13] 96% | viability, T/C [14] 94.5% | viability, T/C [15] 109% | viability, T/C [16] 87.6% | viability, T/C [17] 62.8% | viability, T/C [18] 54.9% | viability, T/C [19] 96% | viability, T/C [20] 107% | viability, T/C [21] 98.7% | viability, T/C [22] 88.1% | viability, T/C [23] 67.9% | viability, T/C [24] 54.5% | viability, T/C [25] 89.5% | viability, T/C [26] 101% | viability, T/C [27] 95.1% | viability, T/C [28] 83.6% | viability, T/C [29] 70.9% | viability, T/C [30] 44.2%

CC(C)c1c(-c2ccccc2)nc2c(C#N)c[nH]n2c1=O + Cc1cncc(-c2nc(NCCc3c[nH]c4ccccc34)c3ncn(C(C)C)c3n2)c1
inactive: viability, T/C [1] 112% | viability, T/C [2] 99.8% | viability, T/C [3] 102% | viability, T/C [4] 95.8% | viability, T/C [5] 93.9% | viability, T/C [6] 102% | viability, T/C [7] 115% | viability, T/C [8] 114% | viability, T/C [9] 120% | viability, T/C [10] 104% | viability, T/C [11] 97.7% | viability, T/C [12] 99.2% | viability, T/C [13] 128% | viability, T/C [14] 118% | viability, T/C [15] 122% | viability, T/C [16] 136% | viability, T/C [17] 125% | viability, T/C [18] 116% | viability, T/C [19] 128% | viability, T/C [20] 117% | viability, T/C [21] 121% | viability, T/C [22] 115% | viability, T/C [23] 129% | viability, T/C [24] 120% | viability, T/C [25] 63.2% | viability, T/C [26] 58.8% | viability, T/C [27] 62.6% | viability, T/C [28] 63.7% | viability, T/C [29] 62.2% | viability, T/C [30] 63.7%
> 10 µM: IC50 (second compound 0.1 µM) | IC50 (second compound 0.316 µM) | IC50 (second compound 1 µM) | IC50 (second compound 3.16 µM) | IC50 (second compound 10 µM)

O=C(C=Cn1cnc(-c2cc(C(F)(F)F)cc(C(F)(F)F)c2)n1)NNc1cnccn1 + Cc1ccccc1N=Nc1ccc(NC(=O)c2ccnn2C)c(C)c1
inactive: viability, T/C (second compound 0.1 µM, first compound 0.00949 µM) 106% | viability, T/C (second compound 0.1 µM, first compound 0.03 µM) 76.8% | viability, T/C (second compound 0.1 µM, first compound 0.0949 µM) 72.7% | viability, T/C (second compound 0.1 µM, first compound 0.3 µM) 49.5% | viability, T/C (second compound 0.1 µM, first compound 0.949 µM) 48.9% | viability, T/C (second compound 0.1 µM, first compound 3 µM) 48% | viability, T/C (second compound 0.316 µM, first compound 0.00949 µM) 91.8% | viability, T/C (second compound 0.316 µM, first compound 0.03 µM) 93.3% | viability, T/C (second compound 0.316 µM, first compound 0.0949 µM) 70.5% | viability, T/C (second compound 0.316 µM, first compound 0.3 µM) 55.8% | viability, T/C (second compound 0.316 µM, first compound 0.949 µM) 45.3% | viability, T/C (second compound 0.316 µM, first compound 3 µM) 47.9% | viability, T/C (second compound 1 µM, first compound 0.00949 µM) 94.4% | viability, T/C (second compound 1 µM, first compound 0.03 µM) 91.1% | viability, T/C (second compound 1 µM, first compound 0.0949 µM) 66% | viability, T/C (second compound 1 µM, first compound 0.3 µM) 56.9% | viability, T/C (second compound 1 µM, first compound 0.949 µM) 49.3% | viability, T/C (second compound 1 µM, first compound 3 µM) 47.4% | viability, T/C (second compound 3.16 µM, first compound 0.00949 µM) 105% | viability, T/C (second compound 3.16 µM, first compound 0.03 µM) 81.1% | viability, T/C (second compound 3.16 µM, first compound 0.0949 µM) 75.9% | viability, T/C (second compound 3.16 µM, first compound 0.3 µM) 58.4% | viability, T/C (second compound 3.16 µM, first compound 0.949 µM) 55.7% | viability, T/C (second compound 3.16 µM, first compound 3 µM) 47% | viability, T/C (second compound 10 µM, first compound 0.00949 µM) 85.7% | viability, T/C (second compound 10 µM, first compound 0.03 µM) 83.8% | viability, T/C (second compound 10 µM, first compound 0.0949 µM) 66.7% | viability, T/C (second compound 10 µM, first compound 0.3 µM) 53.6% | viability, T/C (second compound 10 µM, first compound 0.949 µM) 52% | viability, T/C (second compound 10 µM, first compound 3 µM) 49%
1.96 µM: IC50 (second compound 3.16 µM)
> 3 µM: IC50 (second compound 10 µM)
0.586 µM: IC50 (second compound 0.316 µM)
0.864 µM: IC50 (second compound 1 µM)
0.839 µM: IC50 (second compound 0.1 µM)

Nc1ccn(C2OC(CO)C(O)C2(F)F)c(=O)n1 (stereo not given) + CC(CO)NC(=O)c1cc(-c2ccc(Cl)cc2)nn(-c2cnn(C)c2)c1=O
inactive: viability, T/C [1] 65.4% | viability, T/C [2] 66.8% | viability, T/C [3] 61.2% | viability, T/C [4] 48% | viability, T/C [5] 48.4% | viability, T/C [6] 42.9% | viability, T/C [7] 73.9% | viability, T/C [8] 69.8% | viability, T/C [9] 62.2% | viability, T/C [10] 58.4% | viability, T/C [11] 46.5% | viability, T/C [12] 45.3% | viability, T/C [13] 67.5% | viability, T/C [14] 69.9% | viability, T/C [15] 58.6% | viability, T/C [16] 58.1% | viability, T/C [17] 50.4% | viability, T/C [18] 47.1% | viability, T/C [19] 78.1% | viability, T/C [20] 74% | viability, T/C [21] 63.7% | viability, T/C [22] 55.7% | viability, T/C [23] 42.7% | viability, T/C [24] 40.9% | viability, T/C [25] 96.5% | viability, T/C [26] 76.8% | viability, T/C [27] 64.4% | viability, T/C [28] 58% | viability, T/C [29] 51.7% | viability, T/C [30] 48.4%
1.94 µM: IC50 (second compound 0.1 µM)
3.06 µM: IC50 (second compound 0.316 µM)
4.74 µM: IC50 (second compound 1 µM)
6.31 µM: IC50 (second compound 10 µM)
1.6 µM: IC50 (second compound 3.16 µM)
